Measurements: patent publication US4177277A, “Method for alleviating hypertension” (E. R. Squibb & Sons, Inc., priority 1978, dated 1979)
≈ marks a conversion by molar mass, not a printed value. Non-standard residues stand in square brackets, D forms with d. Residues, ends and D or L forms follow the SMILES beside them.

Assays:
[1] = target: T1, angiotensin-converting enzyme of rabbit lung (Oryctolagus cuniculus, UniProt P12822); assay: Inhibition of isolated angiotensin-converting enzyme of rabbit lung (cleavage of hippuryl-L-histidyl-L-leucine); format: biochemical; settings: 5 mM hippuryl-L-histidyl-L-leucine, pH 8.3, 30 minutes at 37° C., read-out: I50 (concentration producing a 50% inhibition of angiotensin-converting enzyme) (converted)
T1 construct: isolated angiotensin converting enzyme from rabbit lungs; from tissue; host or cells: rabbit lung
T1 sequence (P12822 34-1310): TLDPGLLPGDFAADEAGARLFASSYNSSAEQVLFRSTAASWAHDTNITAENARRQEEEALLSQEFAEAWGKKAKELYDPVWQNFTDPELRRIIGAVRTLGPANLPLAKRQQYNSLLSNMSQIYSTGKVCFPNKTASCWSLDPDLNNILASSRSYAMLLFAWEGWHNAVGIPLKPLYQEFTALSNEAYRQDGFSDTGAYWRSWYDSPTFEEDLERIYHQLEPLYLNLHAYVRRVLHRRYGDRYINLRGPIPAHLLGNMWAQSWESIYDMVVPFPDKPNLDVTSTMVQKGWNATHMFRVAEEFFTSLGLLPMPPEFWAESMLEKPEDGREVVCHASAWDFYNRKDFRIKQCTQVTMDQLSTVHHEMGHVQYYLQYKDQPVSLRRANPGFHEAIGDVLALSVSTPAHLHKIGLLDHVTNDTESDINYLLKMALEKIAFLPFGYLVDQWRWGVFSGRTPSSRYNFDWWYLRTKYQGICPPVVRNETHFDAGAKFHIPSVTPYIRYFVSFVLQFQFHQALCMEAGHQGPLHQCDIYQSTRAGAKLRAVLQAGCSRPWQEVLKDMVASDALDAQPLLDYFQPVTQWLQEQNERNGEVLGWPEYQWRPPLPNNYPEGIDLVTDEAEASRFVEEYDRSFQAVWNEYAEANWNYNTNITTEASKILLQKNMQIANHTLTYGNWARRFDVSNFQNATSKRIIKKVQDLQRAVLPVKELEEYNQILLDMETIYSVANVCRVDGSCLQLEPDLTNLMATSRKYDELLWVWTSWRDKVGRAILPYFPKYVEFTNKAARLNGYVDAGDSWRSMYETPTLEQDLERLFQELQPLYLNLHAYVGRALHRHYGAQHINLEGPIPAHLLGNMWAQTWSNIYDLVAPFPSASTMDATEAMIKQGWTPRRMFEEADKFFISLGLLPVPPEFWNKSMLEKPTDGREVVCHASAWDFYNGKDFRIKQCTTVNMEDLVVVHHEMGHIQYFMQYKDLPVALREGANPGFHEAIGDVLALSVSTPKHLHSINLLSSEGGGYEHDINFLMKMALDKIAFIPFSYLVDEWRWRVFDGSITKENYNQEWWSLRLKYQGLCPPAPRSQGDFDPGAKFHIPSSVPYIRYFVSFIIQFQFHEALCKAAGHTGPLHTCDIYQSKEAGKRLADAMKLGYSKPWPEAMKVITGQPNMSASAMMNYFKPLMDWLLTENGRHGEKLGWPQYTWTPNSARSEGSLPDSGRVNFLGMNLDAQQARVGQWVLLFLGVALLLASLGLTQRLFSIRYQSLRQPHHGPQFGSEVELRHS
Excerpt: Although conversion of angiotensin I to angiotensin II by angiotensin-converting enzyme is probably the reaction of most importance in the pathology of hypertension, the activity of the isolated enzyme is more conveniently and accurately assayed by measuring its rate of cleavage of a simpler peptide substrate, hippuryl-L-histidyl-L-leucine. […] Controls containing no inhibitor (100% activity), and those acidified before addition of the enzyme (0% activity) are similarly prepared. All of the enzymatic reations are initiated by addition of the enzyme component; tubes are incubated for 30 minutes at 37° C.; and reactions are terminated by addition of 0.25 ml. of 1 N HCl. The hippuric acid formed by action of angiotensin-converting enzyme on hippuryl-L-histidyl-L-leucine is extracted into ethyl acetate, evaporated to dryness, redissolved in water and quantitated from its absorbance at 228 nm. The percent inhibition by each concentration of compound is calculated by comparison with the 0% and 100% activity controls.

[2] = test system: angiotensin I converting enzyme in excised guinea pig ileum; assay: Inhibition of angiotensin I converting enzyme in excised guinea pig ileum (contractile activity of angiotensin I); format: cell-based; settings: Cavia porcellus, Krebs solution at 37°, angiotensin I added after two minutes, read-out: IC50 (inhibition of the contractile activity of angiotensin I by 50%)
Procedure: After two minutes, angiotensin I ([…]) is added and the isotonic contractions are measured.

[3] = test system: anesthetized normotensive rats; settings: intravenous injection, Schulze 1972; cited from earlier work
[4] = Fujimura et al. 1964; cited from earlier work
normotensive rats = settings: Ripa 1970; cited from earlier work
[5] = test system: angiotensin I pressor response; assay: Inhibition of angiotensin I pressor response in unanesthetized rats after oral administration; format: in vivo, rats of the Sprague-Dawley strain; settings: unanesthetized male Sprague-Dawley rats, 0.31 μg/kg angiotensin I, 2 animals
Procedure: A representative compound of the present invention administered orally at doses of 10 and 100 mg/kg to unanesthetized male rats of the Sprague-Dawley strain weighing about 200 g., followed by an injection of 0.31 μg/kg of angiotensin I, indicates the following degree of inhibition obtained.

SMILES	IC50 [1]	IC50 [2]	other results
NCCCC(CS)C(=O)N1CCC[C@H]1C(=O)O (mixture of isomers) [1-(5-Amino-2-mercaptomethylpentanoyl)-L-proline]	69.1 nM	0.47 µg/mL (≈ 1.81 µM)	
CC(S)C(=O)NCC(=O)O (stereo not shown) [2-mercaptopropionyl-glycine]			lowering of the blood pressure [3]: produced lowering of the blood pressure; effects on blood pressure [4]: no noticeable effects on blood pressure; angiotensinogen (normotensive rats): increases angiotensinogen; renin blood levels (normotensive rats): lowers renin blood levels
N[C@@H](CS)C(=O)N1CCC[C@H]1C(=O)O [L-Cysteinyl-L-proline] (H-Cys-Pro-OH)	36700 nM	23 µg/mL (≈ 105 µM)	
N[C@H](CS)C(=O)N1CCC[C@H]1C(=O)O [D-Cysteinyl-L-proline] (H-[dC]-Pro-OH)	596 nM	0.05 µg/mL (≈ 0.229 µM)	% maximum inhibition of angiotensin I pressor response ([5]; 10 mg/kg orally): 62%; % maximum inhibition of angiotensin I pressor response ([5]; 100 mg/kg orally): 95%

Continued, in another order:

IC50 [1]	IC50 [2]	SMILES	other results
1150 nM	0.6 µg/mL	CC(=O)NC(CS)C(=O)N1CCC[C@H]1C(=O)O (mixture of isomers) [N-Acetyl-DL-cysteinyl-L-proline]	
72800 nM	23 µg/mL	CC(=O)NC(CSC(C)=O)C(=O)N1CCC[C@H]1C(=O)O (mixture of isomers) [N,S-Diacetyl-DL-cysteinyl-L-proline]	
